Legend:
RhoA WT = molecular target: T1, RhoA WT (Homo sapiens, UniProt P61586); test: RhoA-GTP rhotekin pull-down in HT29 cells expressing RhoA WT; format: cell-based; details: 24 h
T1 construct: endogenous in cells; host or cells: HT29
Method: RhoA Pull-Down Activation Assay Biochem Kit (#BK036) was purchased from Cytoskeleton. According to the manufacturer's protocol, total cell lysate (0.5 mg/mL; 300 μL) was added to 7.5 μL of Rhotekin-Rho Binding Domain beads in 0.6 mL tubes. The solution mixture was incubated at 4° C. on an end-to-end rotator for 1 hour. Beads were washed with 500 μL of washing buffer once, then centrifuged at 5000g for 3 min and the supernatant was discarded. RhoA-GTP was then eluted in 2× laemmli buffer and resolved in 10% SDS-PAGE.
The effects of CL16 in HT29 cells expressing RhoA WT protein and HT29 cells with RhoA C16 Å knock-in by CRISPR-Cas9 were investigated, respectively, to validate the molecular mechanism of RhoA inhibition and anti-cancer properties from CL16. […] HT29 cells expressing RhoA WT or C16 Å protein were incubated with solvent vehicle, CL16 or Rhosin in complete medium for 24 h. The cells were then washed, lysed, subjected to rhotekin pull-down and immunoblotted. […] Wound healing assay on HT29 cells expressing RhoA WT or C16 Å protein were incubated with solvent vehicle, CL16 or Rhosin in complete medium for 48 h (FIGS. 19A and 19B).

RhoA [1] = test: FRET-RhoA biosensor imaging, serum re-stimulation; format: cell-based, human; details: transfected cells, serum-free 24 h, 10% FBS 10 min
Method: To further validate the inhibitory effects of CL16 on RhoA, HCT116 and HT29 cells were transfected with a FRET-RhoA biosensor, where cells with elevated RhoA activity would show a higher FRET/mTFP1. Specifically, HCT116 cells transfected with FRET-RhoA biosensor were treated with CL16 or solvent in serum-free medium for 24 h, washed with PBS, re-stimulated with 10% FBS for 10 min, washed, and then imaged in HBSS by confocal fluorescence microscopy. […] In addition, HCT116 cells were serum-starved and treated with CL16 or Rhosin for 24 h, followed by 10% FBS re-stimulation for 10 min. The cells were then washed and fixed by 4% paraformaldehyde, washed with PBS and stained with Alexa Fluor 488-Phalloidin in PBS (1:20, v/v) at room temperature for 15 min. The cells were washed with PBS, incubated with Hoechst (8.2 μM) in PBS for 15 min, washed and then imaged in PBS by confocal fluorescence microscopy. […] Since RhoA regulates cytoskeletal dynamics and RhoA activation can induce the formation of contractile F-actin, the reduction of F-actin fibers by CL16 treatment supports its inhibitory roles on RhoA signaling.

HT29 xenograft = test: Mouse HT29 xenograft model; format: in vivo
Method: FIG. 7A is a graph showing inhibition of tumor growth by CL16 in mouse HCT116 xenografts through intraperitoneal injection at 10 mg/kg (n=6 per group). FIG. 7B is a graph showing inhibition of tumor growth by CL16 in mouse HT29 xenografts through intraperitoneal injection at 10 mg/kg (n=7). FIG. 7C is a graph showing the body weight of mice with HT29 xenografts throughout the treatment with CL16. FIG. 7D is a graph showing inhibition of tumor growth by CL16 in mouse SW620 xenografts through intraperitoneal injection at 10 mg/kg (n=6 per group). FIG. 7E is a bar graph showing the tumor weight of harvested tumors from the treated mice with SW620 xenografts. FIG. 7F is a graph showing the body weight of mice with SW620 xenografts throughout the treatment with CL16. Statistical analysis using a two-tailed Student's t-test. *P<0.05.
7-week-old mice with weight around 20 g were inoculated subcutaneously with HCT116 (2×10^6 cells per mouse) or HT29 (3×10^6 cells per mouse) cells, in serum-free RMPI or Matrigel in PBS respectively. […] The tumor volume and body weight of the nude mice were measured throughout the treatment. The tumor volume was calculated by the equation: Volume (mm^3)=1×w^2/2, where 1 and w were the length and width of the tumor. At the end of the treatment, the mice were sacrificed and the tumor weight was measured. […]

RhoA [2] = molecular target: RhoA (Homo sapiens, UniProt P61586); test: Fluorescence assay of MANT-GTP binding onto RhoA; format: biochemical; details: pre-incubation of RhoA with CL16
RhoA (Homo sapiens, UniProt P61586), sequence (P61586 whole entry): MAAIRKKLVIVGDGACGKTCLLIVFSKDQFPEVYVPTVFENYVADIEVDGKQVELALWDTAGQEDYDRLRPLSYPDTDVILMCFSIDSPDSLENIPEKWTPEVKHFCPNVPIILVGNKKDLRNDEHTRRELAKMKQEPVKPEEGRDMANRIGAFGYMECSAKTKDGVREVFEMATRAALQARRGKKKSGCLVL
Method: FIGS. 10A and 10B are graphs showing GTP binding assay of RhoA (0.75 μg) with CL16 (FIG. 10A) and GTP-MANT (5.6 μM) (FIG. 10B) in the buffer solution (20 mM Tris, 50 mM NaCl, 10 mM MgCl2, pH 7.5).

HCT116 cells = test: Apoptosis assay with Caspase-3/7 Green Detection Reagent; format: cell-based, human; details: HCT116, 24 h
Method: HCT116 cells were seeded onto a poly-D-lysine coated Ibidi 8-well chamber slide (20,000 cells) and cultured overnight in complete medium at 37° C. with 5% CO2. The cells were treated with DMSO control, Rhosin or CL16 at the indicated concentration along with 5 μM of CellEvent™ Caspase- 3/7 green in serum-free medium for 24 h. Prior to imaging, the medium was exchanged for Hanks' Balanced Salt Solution (HBSS). Confocal fluorescence microscopy was performed using a Zeiss laser scanning microscope 880 with a 20× water-immersion objective lens and ZEN 2.3 (Black Version) software (Carl Zeiss). CellEvent™ Caspase- 3/7 green was excited by a 488 nm diode laser and emission was collected on a META detector between 490 and 525 nm. Image analysis was performed on ImageJ where the number of cells expressing fluorescence within the field was counted against the total number of cells to report the percentage of apoptotic cells. The average percentage was calculated from 3 separate images from the same well.
The effects of CL16 treatment on cell cycle checkpoint proteins were investigated with immunoblotting of the cell cycle checkpoint proteins in SW620 and HT29 cells after CL16 treatment for 24 h. […] Caspase- 3/7 Green Detection Reagent was used to study apoptosis in HCT116 cells treated with Rhosin by confocal fluorescence imaging. […]

T1 sequence (P61586 whole entry): as above

O=C(CCl)N1N=C(c2cc3ccccc3o2)CC1c1ccco1 (stereo not drawn) [CL16]
active RhoA-GTP level (RhoA WT): significant decrease in the active RhoA-GTP level | FRET/mTFP1 upon serum re-stimulation (RhoA [1]): abolishment of the increase in FRET/mTFP1 | body weight, treated vs untreated (HT29 xenograft; HT29 xenografts, FIG. 7C): no observable difference | tumor growth vs vehicle control (HT29 xenograft; nude mice, 10 mg/kg intraperitoneal): significantly inhibited tumor growth | MANT-GTP binding onto RhoA (increase in fluorescence intensity) (RhoA [2]): significantly slowed down the increase in fluorescence intensity | cell apoptosis (HCT116 cells): mediated cell apoptosis
